Laboratory results from US5916566A, “Use of benzoin gum to inhibit P-glycoprotein-mediated resistance of pharmaceutical compounds” (AvMax, Inc., priority 1998, dated 1999).
Read-outs that look alike come from different tables or passages of the source.

System: rat cytochrome P4503A
Details: for % inhibition (0.001%): oil ingredient at 0.001 wt % (Table 2); for % inhibition (0.01%): oil ingredient at 0.01 wt % (Table 2); for % inhibition (0.0001%): oil ingredient at 0.0001 wt % (Table 2)

Compound	% inhibition (0.001%) [%]	% inhibition (0.01%) [%]	% inhibition (0.0001%) [%]	further results
CC(=O)OC/C=C(\C)CCC=C(C)C [Geranyl Acetate, trans-3,7-Dimethyl-2,,6-octadien-1-yl acetate]	51.5	73	–	–
CCOC(=O)/C=C/c1ccccc1 [Ethyl Cinnamate, trans-]	-16	–	-13	–
O=C/C=C/c1ccccc1 [Cinnamic Aldehyde, trans-, 3-Phenylpropenaldehyde]	29.0	78	–	–
C=CCc1ccc(OC)cc1 [Entragole, 4-Allylanisole]	69.2	100	7	–
COc1cc(CNC(=O)CCCC/C=C/C(C)C)ccc1O [Capsaicin, trans-8-Methyl-N-vanillyl-6 nonenamide]	68	–	27	–
C=C(C)[C@@H]1CC=C(C)CC1 [Limonene-(S)-(-), p-Mentha-1,8-diene]	30	82.3	–	–
C=C(C)C1CC=C(C)C(O)C1 (single isomer, unassigned) [Carveol-(-), p-Mentha-6,8-dien-2-ol]	60	–	2	–
COC(=O)c1ccccc1N [Methyl Anthranilate, Methyl 2-aminobenzoate]	23	–	-7	–
C=CC(C)(O)CCC=C(C)C (racemic) [Linalcol-(±), 3,7-Dimethyl-1,6-octadien-3-ol]	72.0	85	41	–
C=CCc1ccc(O)c(OC)c1 [Eugenol, 4-Allyl-2-methoxyphenol]	66	100	9.8	–
CC12CCC(CC1=O)C2(C)C (racemic) [Camphor-(±), 1,7,7-Trimethylbicyclo[2.2.1]heptan-2-one]	57	87	–	–
CC1(C)C(=O)[C@]2(C)CC[C@H]1C2 [Fenchone-(IR)-(-), 1,3,3-Trimethylbicyclo[2.2.1]heptan-2-one]	38	–	14	–
C=C1CC/C=C(\C)CC[C@@H]2[C@@H]1CC2(C)C [Caryophyllene, trans-(-), β Caryophyllene]	85	–	26	–
C=CC(=C)CCC=C(C)C [Myrcene-β, 7-Methyl-3-methylene-1,6-octadiene]	13	–	0	–
C=C(C)[C@@H]1CC=C(C)C(=O)C1 [Carvone-(R)-(-), p-Mentha-6,8-dien-2-one]	69	100	27	–
CC1=CC=C(C(C)C)CC1 [Terpinene-α, p-Mentha-1,3-diene]	28	–	-6	–
CC1=CCC(O)(C(C)C)CC1 (stereo not drawn) [Terpinen-4-ol, p-Menth-1-en-4-ol]	80	100	3.81	–

Compound	% inhibition (0.001%) [%]	% inhibition (0.01%) [%]	% inhibition (0.0001%) [%]	further results
C=CC(C)(CCC=C(C)C)OC(C)=O (stereo not drawn) [Linalyl Acetate, 3,7-Dimethyl-1,6-octadien-3-yl acetate]	55.8	100	–	–
C=C(C)[C@H]1CC=C(C)C(=O)C1 [Carvone-(S)-(+), p-Mentha-6,8-dien-2-one]	70.5	–	30	–
CC(=O)N1CCN(c2ccc(OCC3COC(Cn4ccnc4)(c4ccc(Cl)cc4Cl)O3)cc2)CC1 (stereo not drawn) [Ketoconazole, reference compound]	–	–	–	% inhibition (reference compound at 0.000001 % (Table 3)): 8%; % inhibition (reference compound at 0.000005 % (Table 3)): 20%; % inhibition (reference compound at 0.00001 % (Table 3)): 42%; % inhibition (reference compound at 0.00005 % (Table 3)): 100%
C=C1CC[C@H]2C[C@@H]1C2(C)C [Pinene-(IS)-(-)-β, 6,6-Dimethyl-2-mehylenebicyclo[3.1.1]heptane]	60	88	-10	–
CC(C)=CCCC(C)CCO (stereo not drawn) [Citronellal-(DL)-(β), 3,7-Dimethyl-6-octen-1-ol]	86	95	41	–
CC1=CCC(C(C)(C)O)CC1 (stereo not drawn) [Terpincol-α, p-Menth-1-en-8-ol]	86	100	13.4	–
Cc1ccc(C(C)C)c(O)c1 [Thymol, 2-isoPropyl-5-methylphenol]	56	100	–	–
CC1=CCC2C(C1)C2(C)C (stereo not drawn) [Carene-3-(Δ)]	34	–	-26	–
COC(=O)c1ccccc1O [Methyl Salicylate, Methyl-2-hydroxybenzoate]	12	86	–	–
Cc1ccc(C(C)C)cc1O [Carvacrol, 5-isoPropyl-2-methylphenol]	93	97	11	–
CC(C)=CCC/C(C)=C/C=O [Citral]	54	99	44	–
CCOc1cc(C=O)ccc1O [Ethyl Vanillin, 3-Ethoxy-4-hydroxybenzoledhyde]	–	58	–	–
CC(C)=C1CC[C@@H](C)CC1=O [Pulegone-(R)-(+), p-Menth-4-(8)-en-3-one]	31	–	-17	–
C=C1C2CCC(C2)C1(C)C (single isomer, unassigned) [Camphene-(+), 2,2-Dimethyl-3-methylenebicyclo[2.2.1]heptane]	12.4	–	-49	–
CC1(C)[C@H]2CC[C@]1(C)[C@H](O)C2 [Borneol-(IS)-endo(-), 1,7,7-Trimethylbicyclo[2.2.1]heptan-2-ol]	80	100	20	–
C/C=C/c1ccc(OC)cc1 [Anethole, trans-, 4-Propenylanisole]	53	100	–	–
CC12CCC(CC1)C(C)(C)O2 [Eucatyptol, 1,8-Cincole]	64	88	38	–
